Laboratory results reported in patent US11136583B2, “Methods and materials for treating cancer” (Mayo Foundation for Medical Education and Research, priority 2017, dated 2021).

Assays:
[1] = test system: Protein kinase ataxia-telangiectasia mutated (ATM) signaling; assay: ATM signaling in irradiated U2OS cells by western blot; assay type: cell-based; conditions: U2OS cells pretreated 6 hours, then 10 Gy IR, harvested 30 minutes after IR (FIG. 11)
Procedure: FIG. 11. U2OS cells were pretreated with AZD6244. 6 hours later, cells were treated with 10 Gy IR. 30 minutes after ionizing radiation, cells were harvested, lysed, and analyzed by western blot with the indicated antibodies.
(§1) U2OS cells were plated in 6 well plates, and MEK1 inhibitors (AZD6244 or GDC0623) were added to wells with 10 μM final concentration and incubated for 48 hours. AZD6244 was purchased from Selleckchem. In some cases, cells were also irradiated with IR (10 Gy IR for 30 minutes).
(§2) Cells were washed once with PBS and lysed with SDS lysis buffer. The samples were separated by SDS-PAGE following three washes with NETN buffer. Western blots were carried out following standard procedures.

[2] = test system: UFL1; assay: Ufmylation level in U2OS cells by western blot with UFM1 antibody; assay type: cell-based
Procedure: FIG. 10. U2OS cells were treated with AZD6244 or GDC0623. 48 hours later, cell were harvested, lysed, and analyzed by western blot with the indicated antibodies.
as §1, §2
To identify an inhibitor of UFL1 activity that induced a significant decrease of ufmylation, cells were treated with inhibitors and were analyzed by western blot using UFM1 antibody to detect the ufmylation level in the cells.

## Cn1cnc2c(F)c(Nc3ccc(Br)cc3Cl)c(C(=O)NOCCO)cc21 [AZD6244, selumetinib]
[1]
  ATM signaling: greatly suppressed
[2]
  UFL1 inhibition (conclusion from ufmylation and ATM signaling western blots): inhibits UFL1
[2]; 10 μM, 48 hours, western blot with UFM1 antibody (FIG. 10)
  ufmylation level in the cells: greatly suppressed
